# According to PubChem BioAssay (NCI):
#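 Dose response: 5 concentrations. Exposure: 48 h. Format: 96-well plates. Endpoint: linear interpolation; highest concentration if not reached. TGI: total growth inhibition.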
# How the values were obtained:
# Test in all cases: NCI tumour cell line growth inhibition, 48 h
# [1] = test system: OVCAR-8 ovarian
# [2] = test system: IGROV1 ovarian
# [3] = test system: SNB-19 CNS
# [4] = test system: T-47D breast
# [5] = test system: SK-MEL-5 melanoma
# [6] = test system: HCC-2998 colon
# [7] = test system: HOP-62 NSCLC
# [8] = test system: SW-620 colon
# [9] = test system: NCI-H23 lung
# [10] = test system: SF-295 CNS
# [11] = test system: BT-549 breast
# [12] = test system: SK-MEL-28 melanoma
# [13] = test system: COLO 205 colon
# [14] = test system: PC-3 prostate
# [15] = test system: SF-539 CNS
# [16] = test system: A498 renal
# [17] = test system: OVCAR-3 ovarian
# [18] = test system: U251 CNS
# [19] = test system: OVCAR-5 ovarian
# [20] = test system: HOP-92 NSCLC
# [21] = test system: HCT-116 colon
# [22] = test system: DU-145 prostate
# [23] = test system: NCI-H460 lung
# [24] = test system: OVCAR-4 ovarian
# [25] = test system: MOLT-4 leukemia
# [26] = test system: SN12C renal
# [27] = test system: HT29 colon
# [28] = test system: UO-31 renal
# [29] = test system: HL-60(TB) leukemia
# [30] = test system: TK-10 renal
# [31] = test system: RPMI-8226 leukemia
# [32] = test system: NCI-H226 lung
# [33] = test system: MDA-MB-435
# [34] = test system: NCI-H522 lung
# [35] = test system: HCT-15 colon
# [36] = test system: K-562 leukemia
# [37] = test system: ACHN renal
# [38] = test system: HS 578T breast
# [39] = test system: UACC-257 melanoma
# [40] = test system: CAKI-1 renal
# [41] = test system: EKVX NSCLC
# [42] = test system: 786-0 renal
# [43] = test system: M14 melanoma
# [44] = test system: SK-MEL-2 melanoma
# [45] = test system: SF-268 CNS
# [46] = test system: UACC-62 melanoma
# [47] = test system: MDA-MB-231 breast
# [48] = test system: NCI/ADR-RES ovarian
# [49] = test system: SNB-75 CNS
# [50] = test system: A549 NSCLC
# [51] = test system: RXF 393 renal
# [52] = test system: KM12 colon
# [53] = test system: CCRF-CEM leukemia
# [54] = test system: MCF7 breast
# [55] = test system: SR leukemia
# [56] = test system: SK-OV-3 ovarian
# [57] = test system: MALME-3M melanoma
# [58] = test system: LOX IMVI melanoma
smiles,measurement,setting,value
O=C(CC(=O)N1N=C(N2c3ccccc3Sc3ccccc32)CC1c1ccccc1)Nc1ccccc1Cl (stereo unspecified),TGI,[1],> 100 µM
same,TGI,[2],> 100 µM
same,TGI,[3],> 100 µM
same,TGI,[4],> 100 µM
same,TGI,[5],> 100 µM
same,TGI,[6],> 100 µM
same,TGI,[7],> 100 µM
same,TGI,[8],> 100 µM
same,TGI,[9],> 100 µM
same,TGI,[10],> 100 µM
same,TGI,[11],> 100 µM
same,TGI,[12],> 100 µM
same,TGI,[13],> 100 µM
same,TGI,[14],> 100 µM
same,TGI,[15],> 100 µM
same,TGI,[16],> 100 µM
same,TGI,[17],> 100 µM
same,TGI,[18],> 100 µM
same,TGI,[19],> 100 µM
same,TGI,[20],> 100 µM
same,TGI,[21],> 100 µM
same,TGI,[22],> 100 µM
same,TGI,[23],> 100 µM
same,TGI,[24],> 100 µM
same,TGI,[25],> 100 µM
same,TGI,[26],> 100 µM
same,TGI,[27],> 100 µM
same,TGI,[28],> 100 µM
same,TGI,[29],> 100 µM
same,TGI,[30],> 100 µM
same,TGI,[31],> 100 µM
same,TGI,[32],> 100 µM
same,TGI,[33],> 100 µM
same,TGI,[34],> 100 µM
same,TGI,[35],> 100 µM
same,TGI,[36],> 100 µM
same,TGI,[37],> 100 µM
same,TGI,[38],> 100 µM
same,TGI,[39],> 100 µM
same,TGI,[40],> 100 µM
same,TGI,[41],> 100 µM
same,TGI,[42],> 100 µM
same,TGI,[43],> 100 µM
same,TGI,[44],> 100 µM
same,TGI,[45],> 100 µM
same,TGI,[46],> 100 µM
same,TGI,[47],> 100 µM
same,TGI,[48],> 100 µM
same,TGI,[49],> 100 µM
same,TGI,[50],> 100 µM
same,TGI,[51],> 100 µM
same,TGI,[52],> 100 µM
same,TGI,[53],> 100 µM
CCCCCCN1C(=O)CC(=O)N(CCCCCC)S1(=O)=O,TGI,[2],25.9 µM
same,TGI,[3],> 100 µM
same,TGI,[4],> 100 µM
same,TGI,[5],44.2 µM
same,TGI,[54],> 100 µM
same,TGI,[7],35.9 µM
same,TGI,[8],41.9 µM
same,TGI,[9],75.2 µM
same,TGI,[10],35.9 µM
same,TGI,[13],34.6 µM
same,TGI,[14],60 µM
same,TGI,[15],41.9 µM
same,TGI,[16],27.8 µM
same,TGI,[17],52.1 µM
same,TGI,[18],33.1 µM
same,TGI,[19],41.1 µM
same,TGI,[55],61 µM
same,TGI,[20],25.6 µM
same,TGI,[21],> 100 µM
same,TGI,[22],> 100 µM
same,TGI,[23],> 100 µM
same,TGI,[24],41 µM
same,TGI,[25],51.6 µM
same,TGI,[26],37.1 µM
same,TGI,[27],46.8 µM
same,TGI,[28],3.46 µM
same,TGI,[29],48.9 µM
same,TGI,[30],41.6 µM
same,TGI,[31],47.2 µM
same,TGI,[32],> 100 µM
same,TGI,[33],53.5 µM
same,TGI,[34],27.4 µM
same,TGI,[36],> 100 µM
same,TGI,[38],45.9 µM
same,TGI,[56],51.5 µM
same,TGI,[57],72.8 µM
same,TGI,[39],> 100 µM
same,TGI,[40],50.7 µM
same,TGI,[41],41 µM
same,TGI,[58],36 µM
same,TGI,[42],35.8 µM
same,TGI,[43],> 100 µM
same,TGI,[44],28.5 µM
same,TGI,[45],36.9 µM
same,TGI,[46],34.3 µM
same,TGI,[47],33.2 µM
same,TGI,[48],49.5 µM
same,TGI,[49],32.7 µM
same,TGI,[50],> 100 µM
same,TGI,[51],34.1 µM
same,TGI,[52],> 100 µM
same,TGI,[53],40.9 µM
O=C1C(NCCF)=C(Cl)C(=O)c2ncccc21,TGI,[1],3.27 µM
same,TGI,[2],3.28 µM
same,TGI,[3],2.68 µM
same,TGI,[4],5.04 µM
same,TGI,[5],0.343 µM
same,TGI,[6],2.5 µM
same,TGI,[54],2.28 µM
same,TGI,[7],3.47 µM
same,TGI,[8],2.15 µM
same,TGI,[9],2.8 µM
same,TGI,[10],3.02 µM
same,TGI,[11],2.86 µM
same,TGI,[12],2 µM
same,TGI,[14],3.45 µM
same,TGI,[15],2.34 µM
same,TGI,[16],3.17 µM
same,TGI,[18],2 µM
same,TGI,[19],3.46 µM
same,TGI,[55],5.35 µM
same,TGI,[20],3.67 µM
same,TGI,[21],2.4 µM
same,TGI,[22],2.33 µM
same,TGI,[23],1.68 µM
same,TGI,[25],3.27 µM
same,TGI,[26],2.2 µM
same,TGI,[27],6.15 µM
same,TGI,[29],0.854 µM
same,TGI,[30],3.23 µM
same,TGI,[31],1.78 µM
same,TGI,[32],3.66 µM
same,TGI,[33],0.353 µM
same,TGI,[35],2.08 µM
same,TGI,[36],0.575 µM
same,TGI,[37],3.62 µM
same,TGI,[38],4.01 µM
same,TGI,[56],3.28 µM
same,TGI,[57],1.2 µM
same,TGI,[39],3.23 µM
same,TGI,[41],3.47 µM
same,TGI,[58],1.61 µM
same,TGI,[42],2.51 µM
same,TGI,[43],2.28 µM
same,TGI,[44],0.794 µM
same,TGI,[45],4.17 µM
same,TGI,[46],1.25 µM
same,TGI,[47],5.19 µM
same,TGI,[49],1.93 µM
same,TGI,[50],3.79 µM
same,TGI,[51],2.01 µM
same,TGI,[52],2.93 µM
same,TGI,[53],0.695 µM
